Measured values published in patent US11155561B2, “Substituted glutarimides as Btk inhibitors” (SHANGHAI MEIZER PHARMACEUTICALS CO., LTD., priority 2017, dated 2021).

Tests used:
Btk [1] = target: T1, Btk (Homo sapiens, UniProt Q06187); assay: Inhibition activity of compounds on Btk by Caliper assay; format: biochemical; conditions: compound 100 nM, Btk kinase
Description: Example 5 Testing the Inhibition Activity of Compounds on Btk by Caliper Assay
The experimental steps were as follows:
Preparation of 1× kinase reaction buffer (50 mM HEPES, PH 7.5; 0.0015% Brij-35) and kinase reaction termination solution (100 mM HEPES, PH 7.5; 0.0015% Brij-35; 0.2% Coating Reagent; 50 mM EDTA);
Preparation of experimental samples: 100 μL of 5 μM sample solution (dissolved in 100% DMSO) was added to a 96-well plate to obtain a 50× sample solution. As a control, two wells were set containing only 100 μL of 100% DMSO on the same plate. One was served as a control without samples and the other was served as a control without enzymes. 10 μL of sample and 90 μL of 1× kinase reaction buffer were added to a 96-well plate as a transfer plate. The transfer plate was shaken for 10 minutes.
Preparation of the test plate: taking 5 μL each of the prepared samples in the 96-well transfer plate into a 384-well plate.
Kinase reaction: to 5 μL of 5× compound solution (dissolved in DMSO, diluted 10 times with water) was added 10 μL of 2.5× Btk kinase solution (kinase was diluted with 1× kinase reaction buffer), and incubated at room temperature for 10 min, then 10 μL of 2.5× substrate peptide solution (FAM-labeled peptide and ATP were diluted with 1× kinase reaction buffer) was added.
Termination of the kinase reaction: 25 μL of kinase termination solution was added after being reacted at 28° C. for a period of time.
The fluorescence (F) was tested on a Caliper and data was collected.
The inhibition rate of kinase activity was calculated: the percent inhibition rate of kinase activity=(FDMSO control−Fsample)/(FDMSO control−Fnegative control)×100, with DMSO as the solution control, and no kinase as the negative control.

[2] = test system: RPMI 8226 cells (human multiple myeloma cells); assay: Inhibition of proliferation of RPMI 8226 cells by CCK8 assay; format: cell-based; conditions: 48 hours
Description: Example 7 Testing the Inhibitory Effect of Formula Compounds on the Proliferation of RPMI 8226 Cells (Human Multiple Myeloma Cells) by CCK8 Assay
The inhibitory effect of the compound on the proliferation of RPMI 8226 cells (commercially available from ATCC) was determined by the CCK8 assay in vitro. The experimental steps were as follows:
RPMI 8226 cells were cultured in 1640 medium containing 10% calf serum, seeded in a 96-well plate with 2×10^5 cells/well, and placed in a 37° C., 5% CO2 incubator. The compound was dissolved in dimethyl sulfoxide (DMSO) to obtain a solution with a concentration of 10 mM, and then diluted to the desired concentration with a phosphate buffer solution. The solution was added to the above 96-well plate. Each concentration has 2 wells with 10 μl per well. Each concentration was tested in duplicate. As a control, DMSO was diluted in the corresponding gradient and then added to the plate.
After the 96-well plate was cultured in a 37° C., 5% CO2 cell incubator for 48 hours, 10 μl of CCK8 solution was added to each well, and it was cultured in the incubator for another 1 to 4 hours. The light absorption value at 465 nm was measured.
The relative survival rate of the cells after the compound treatment was calculated based on the light absorption value.
The IC50 of the compound against RPMI 8226 cells was calculated by software.

[3] = test system: DOHH2 cells (human B cell lymphoma cells); assay: Inhibition of proliferation of DOHH2 cells by CTG assay; format: cell-based; conditions: DOHH-2, compound 10 μM, 72 hours
Description: (§1) Example 8 Testing the Inhibitory Effect of Formula Compounds on the Proliferation of DOHH2 Cells (Human B Cell Lymphoma Cells) and SU-DHL-6 (Human B Cell Lymphoma Cells) by CTG Assay
(§2) The […] was used to determine the inhibitory effect of the compounds on the proliferation of DOHH2 cells (available from ATCC) and SU-DHL-6 cells (available from ATCC) in vitro. Cells were cultured and compounds were prepared referring to Example 7. The cell plating density was 1×10^4 cells/well for DOHH2 cells, and 1.5×10^4 cells/well for SU-DHL-6 cells. The culture time after the administration was 72 hours. After that an appropriate amount of CTG reagent was added, the luminescence value was measured, and the inhibition rate was calculated.

[4] = test system: SU-DHL-6 (human B cell lymphoma cells); assay: Inhibition of proliferation of SU-DHL-6 cells by CTG assay; format: cell-based; conditions: compound 10 μM, 72 hours
Description: as §1, §2

Btk [5] = target: T1, Btk; assay: Btk protein degradation activity by Western blot in RPMI8226 cells; format: cell-based; set-up: degradation activity of the compound (10 μM) on Btk protein in RPMI8226 cells; endogenous in cells; host or cells: RPMI8226; conditions: compound 10 μM, 24 hours
Description: Example 6 Testing the Btk Protein Degradation Activity of Compounds by Western Blot
Cell lines: RPMI8226 Cell line was cultured in RPMI1640 medium containing 10% calf serum in a 37° C., 5% CO2, and saturated humidity incubator.
DMSO control group and compound intervention group (10 μM) were set. Cells was collected after the treatment for 24 hours, then 100 μL of pre-chilled cell lysate was added and cells were lysed on ice for 30 minutes. Total cell protein was extracted, and protein concentration was determined and quantified by […] (BCA) method. After routine gelatinization, loading, electrophoresis, then transferring to membrane and blocking, rabbit anti-human Btk (1:500) was added, and incubated at 4° C. overnight. The mixture was rinsed and then horseradish peroxidase labeled goat anti-rabbit IgG (1:5000) was added. After the rinsing it was developed by the ECL developing solution, the Bio-Rad gel imaging system was used for scanning and imaging, and the computer software was used for analysis. […] (GAPDH) was used as an internal control.
Image J software was used to analyze the gray scale of each band to calculate the Btk protein degradation rate of the compound.

T1 sequence (Q06187 whole entry): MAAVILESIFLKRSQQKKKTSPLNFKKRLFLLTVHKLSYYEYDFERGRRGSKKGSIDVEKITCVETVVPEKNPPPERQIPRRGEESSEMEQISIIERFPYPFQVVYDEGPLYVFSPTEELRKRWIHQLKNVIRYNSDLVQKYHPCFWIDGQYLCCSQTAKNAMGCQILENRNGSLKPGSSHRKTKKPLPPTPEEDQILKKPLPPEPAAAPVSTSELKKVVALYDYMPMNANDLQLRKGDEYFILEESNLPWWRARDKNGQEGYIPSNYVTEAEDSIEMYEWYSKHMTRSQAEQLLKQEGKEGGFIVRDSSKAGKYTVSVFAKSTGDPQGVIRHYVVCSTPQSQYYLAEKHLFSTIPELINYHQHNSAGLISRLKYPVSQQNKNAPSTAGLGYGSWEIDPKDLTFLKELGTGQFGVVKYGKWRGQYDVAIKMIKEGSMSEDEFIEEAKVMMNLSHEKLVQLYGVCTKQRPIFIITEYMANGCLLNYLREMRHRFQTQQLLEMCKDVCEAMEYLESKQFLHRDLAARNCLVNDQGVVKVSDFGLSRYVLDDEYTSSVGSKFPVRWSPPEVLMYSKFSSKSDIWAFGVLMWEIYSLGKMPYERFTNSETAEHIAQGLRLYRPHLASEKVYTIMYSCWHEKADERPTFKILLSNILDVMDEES

Nc1ncnc2c1c(-c1ccc(Oc3ccccc3)cc1)nn2C1CCCN(CCOCCOCCOc2cccc3c2C(=O)N(C2CCC(=O)NC2=O)C3=O)C1 (stereo not shown) [Compound 7]
inhibition at 0.1 µM (Btk [1]): 99% | IC50 [2]: 83 µM | inhibition at 10 µM [3]: 63% | inhibition at 10 µM [4]: 53% | Degradation activity (Btk [5]): ++++ (“++++” means the degradation rate is greater than 90%)

Nc1ncnc2c1c(-c1ccc(Oc3ccccc3)cc1)nn2[C@@H]1CCCN(CCCCCC(=O)Nc2cccc3c2C(=O)N(C2CCC(=O)NC2=O)C3=O)C1 (stereo partly shown) [Compound 3]
inhibition at 0.1 µM (Btk [1]): 92% | IC50 [2]: 34 µM | inhibition at 10 µM [3]: 87% | inhibition at 10 µM [4]: 60% | Degradation activity (Btk [5]): ++++ (“++++” means the degradation rate is greater than 90%)

Nc1ncnc2c1c(-c1ccc(Oc3ccccc3)cc1)nn2C1CCCN(CCOCCOCCOCCOc2cccc3c2C(=O)N(C2CCC(=O)NC2=O)C3=O)C1 (stereo not shown) [Compound 16]
inhibition at 0.1 µM (Btk [1]): 95% | inhibition at 10 µM [3]: 84% | inhibition at 10 µM [4]: 71% | Degradation activity (Btk [5]): ++++ (“++++” means the degradation rate is greater than 90%)

Nc1ncnc2c1c(-c1ccc(Oc3ccccc3)cc1)nn2C1CCCN(CCOCCOCCNc2cccc3c2C(=O)N(C2CCC(=O)NC2=O)C3=O)C1 (stereo not shown) [Compound 14]
inhibition at 0.1 µM (Btk [1]): 99% | IC50 [2]: 6 µM | inhibition at 10 µM [3]: 98% | inhibition at 10 µM [4]: 87% | Degradation activity (Btk [5]): ++++ (“++++” means the degradation rate is greater than 90%)
